We go through 2 molecules from patent US8435929B2, “1-aminocyclopropane carboxylic acid as a fruit thinner” (Valent BioSciences Corporation, priority 2009, dated 2013).

Molecules are shown by their SMILES.

Series [1] relates to Babygold #5 peach. In words: Field thinning study, fruit set of Babygold #5 peach. Type of series: in vivo. Particulars: rate not given, 10 mm fruitlet timing.
Series [2] concerns cotton cotyledons. In words: Cotton cotyledon bioassay, ethylene production. Type of series: in vivo. An excerpt: For laboratory and growth chamber studies, deionized ultra-pure water was used in preparing solutions. Spray solutions were used as soon as possible after mixing. All spray solutions were amended with spray adjuvants as appropriate. A cotton cotyledon bioassay was used in the laboratory to study the effects of ACC or ethephon on induction of ethylene. Ten day old cotton plants with fully expanded cotyledons were used. Sprays were made to the upper (adaxial) surface of the leaves and the plants were then incubated in growth cabinets at the temperatures indicated. The cotyledons were excised at the times indicated and placed in sealed plastic vials. Headspace ethylene samples were measured on a Hewlett Packard 5890 gas chromatograph equipped with a packed Haysep T column (Alltech, Deerfield, Ill.) and a flame ionization detector.
Selected characteristics of ACC conversion to ethylene (i.e. dose response, time course, and temperature effect) were assessed to determine whether the relative consistence of ACC as a stone fruit and apple thinner was related to performance as an ethylene producer. In these bioassays, ACC solutions were applied to cotton cotyledons by a hand sprayer at the doses indicated and all spray solutions contained 0.05% (v/v) L-77.
In the first study, the effect of ACC dose sprays on ethylene produced by cotton cotyledons was determined. (Table 16). Cotton plants were sprayed with solution (ACC at 1, 10, 25, 50, 100, 250, 500, or 1000 ppm) and the cotyledons were excised 6 or 24 h after spraying and incubated in sealed tubes for 4 h. Ethylene levels were determined production was assayed.
In the second study, the time course of ethylene production following application of 500 mg/liter ACC or ethephon was determined (Table 17).
In the third study, the effect of temperature on ethylene production following ACC or ethephon application was determined (Table 18). The incubation of the plants following spraying and the incubation of the detached leaves were performed at 25 and 35° C.

For series [3], the system named is Babygold #5 peaches. Nature of the series: Scaffold gummosis rating of Babygold #5 peaches. Type of series: in vivo, peach. An excerpt: Gummosis is a physiological stress response in which sap oozes from fractures in tree bark and often leads to tree decline. Use of 2-chloroethylphosphonic acid as a stone fruit thinning has been limited because it can stimulate severe incidences of gummosis of stone fruit.

In series [4] the test system is PF-27 peaches. In words: Field thinning study, ACC and ABA, fruit set of PF-27 peaches. It is filed as in vivo, peach. Particulars: 1000 ppm, application at shuck split. An excerpt:
Application of ACC alone at shuck split reduced fruit set in a dose dependent manner (Table 10).

As to `O=P(O)(O)CCCl` [Ethephon, 2-chloroethylphosphonic acid, reference compound], in series [1], the “Percent Fruit Set” value is 8.4%. For the same molecule, the Ethylene production in series [2] (200 ppm, 24 h after application, incubated at 25 C) is recorded as 41.0 nl/g leaf weight/h incubated; in series [2] (200 ppm, 24 h after application, incubated at 35 C), 133.1 nl/g leaf weight/h incubated; in series [2] (500 ppm, 1 h following spray application, 25 C (time course)), 153.4 nl/g leaf weight/h incubated; in series [2] (500 ppm, 4 h following spray application, 25 C (time course)), 102.5 nl/g leaf weight/h incubated; in series [2] (500 ppm, 15 h following spray application, 25 C (time course)), 106.0 nl/g leaf weight/h incubated; in series [2] (500 ppm, 24 h following spray application, 25 C (time course)), 90.8 nl/g leaf weight/h incubated. Besides, the Ethylene production in series [2] (500 ppm, 48 h following spray application, 25 C (time course)) was 58.5 nl/g leaf weight/h incubated. Further, in series [3] (Babygold #5 peaches, Table 11 study), the “Gummosis (in words)” value is recorded as “substantially increased gummosis”. The “Scaffold Gummosis (0 = no gummosis to 5 = severe gummosis)” value in series [3] (rate not given, 10 mm fruitlet timing, scale 0-5) is recorded as 4.7.

As to `CC1=CC(=O)CC(C)(C)[C@@]1(O)/C=C/C(C)=C\C(=O)O` [ABA, abscisic acid, reference compound], in series [4], the “Crop load (percent) of treated trees compared to the untreated control” value amounted to 80% and the Percent fruit set worked out at 69%.
